Data on 17 molecules can be found in patent publication US20180037601A1, “Nucleoside-Based Anti-Bacterial and Anti-Protozoan Drugs” (UTI Limited Partnership, priority 2015, published 2018).

pIC50: −log10 of the molar value. Where “and” joins values, the source holds several entries; their conditions need not be identical. Equal values may be shown once. Read-outs that look alike come from different tables or passages of the source.

Data set [1] relates to Trypanosoma brucei rhodesiense (STIB900). Nature of the data set: In vitro growth inhibition assay of T.b. rhodesiense (STIB900), Alamar blue. In kind it is cell-based. From the text: (§1) Each of the nucleoside analogues was examined for in vitro activity against four parasites, T.b. rhodesiene, T. cruzi, L. donovoni and P. falciparum, as well as for cytotoxicity toward the L6 rat myoblast cell line.
(§2) All IC50 values are expressed as micromolar. Cytotoxicity (L6 rat myoblast cells); average of duplicate determinations. Trypanosoma brucei rhodesiense (STIB900); average of duplicate determinations. Selectivity index for T.b. rhodesiense (SIr); expressed as the ratio [IC50 (L6/IC50 (T.b. rhodesiense)]. Plasmodium falciparum ([…], resistant to chloroquine); average of duplicate determinations. Selectivity index for P. falciparum (SIp), expressed as the ratio [IC50 (L6/IC50 (P. falciparum)]. Leishmania donovani (MHOM/SD/62/IS-CL2D) axenic amastigotes; average of duplicate determinations. Selectivity index for L. donovani (SIL), expressed as the ratio [IC50 (L6/IC50 (L. donovani)]. Trypanosoma cruzi; average of duplicate determinations. Selectivity index for T. cruzi (SIC), expressed as the ratio [IC50(L6/IC50(T. cruzi)]. IA. Nucleoside analogs designed to be activated via Pathway I. IB. Nucleoside analogs designed to be activated via Pathway II. Phth=phthalimido.
Preparation of compounds for assay. Compounds were dissolved in 100% dimethyl sulfoxide (DMSO) and diluted in the culture medium prior to the in vitro assay. The DMSO concentration never exceeded 1% in the in vitro Alamar Blue assays at the highest drug concentration.
In vitro growth inhibition assay of T.B. rhodesiense (STIB900). IC50 values were determined using the Alamar blue assay and were carried out twice independently and in duplicate as described.^57
Background: The colour change of resazurin is a common sign of viable cells or microbes.

In data set [2] the test system is Plasmodium falciparum (KI), erythrocytic stages. Nature of the data set: In vitro growth inhibition assay of P. falciparum, [3H]-hypoxanthine incorporation. The class given is cell-based.
Excerpt: as §1, §2
In vitro growth inhibition assay of P. falciparum (KI). The determination of IC50 values against erythrocytic stages of P. falciparum was carried out in duplicate using the [^3H]-hypoxanthine incorporation assay.^58,59

Data set [3] concerns Leishmania donovani (MHOM/SD/62/IS-CL2D) axenic amastigotes. In words: In vitro growth inhibition assay of L. donovani axenic amastigotes, CellTiter. The class given is cell-based. Conditions: for pIC50: Leishmania donovani, axenic amastigotes, average of duplicate determinations, read-out: IC50 against L. donovani.
Excerpt: as §1, §2
In vitro growth inhibition assay of L. Donovani. Axenic amastigotes of L. Donovaniwere adapted from promastigotes and grown in the amastigote medium previously described.^60 The tetrazolium dye-based CellTiter reagent (Promega, Madison, Wis.) was used to assess parasite growth.^61

Another data set relates to Trypanosoma cruzi. Nature of the data set: In vitro activity against T. cruzi. The class given is cell-based. Conditions: for pIC50: Trypanosoma cruzi.
Excerpt: as §1, §2

The nature of data set [4]: In vitro cytotoxicity assay (L6 rat myoblast cells), Alamar blue. In kind it is cell-based. Particulars: read-out: Cytotoxicity IC50 toward L6 mammalian cell line.
Excerpt: as §1, §2
In vitro cytoxicity assay (L6 Rat Myoblast cells). IC50 values were determined using the Alamar blue assay^62 and were carried out twice independently.

The test system of a further data set is T.b gambiense. Particulars: literature ref. 30; cited from earlier work.
The subject of the next data set is T.b. rhodesiense. Particulars: literature ref. 30; cited from earlier work.
Another data set concerns L. donovani. Particulars: literature ref. 55; cited from earlier work.
For data set [5], the system named is Leishmania donovani. Particulars: literature ref. 29; cited from earlier work.
In data set [6] the test system is Leishmania donovani. Conditions: literature ref. 29; cited from earlier work. This is another data set of the same source.
Where [7] appears, read: average of duplicate determinations, read-out: IC50 against T. cruzi.

By pIC50 is commonly meant the IC50 on a negative log10 scale, so that one unit is a factor of ten. For `CSC[C@H]1O[C@@H](n2cnc3c(N)nc(F)nc32)[C@H](O)[C@@H]1O` [ACT-51, 5′-Deoxy-2-fluoro-5′-(methylthio)adenosine], the “Activity against Trypanosoma brucei (in words)” value in [1] is recorded as “strong activity”. Further, the “Activity against P. falciparum (in words)” value in data set [2] is on record as “strong activity”. The “Activity against L. donovani (in words)” value in data set [3] is “strong activity”. The pIC50 was 5.59 with Trypanosoma cruzi (setting [7]) and 6.23 in [4].
For `O=C1N=CN=C2C([C@@H]3O[C@H](CO)[C@@H](O)[C@H]3O)=CN=C12` [9-deaza-inosine], the “Activity against T.b gambiense” value in the data set with T.b gambiense is reported as “active”. In addition, the “Activity against T.b. rhodesiense” value with T.b. rhodesiense is reported as “active”. The “Activity against L. donovani in a squirrel monkey in vivo model” value in the data set with L. donovani is listed as “activity”.
By melting point is commonly meant the temperature, or range, at which the solid turns liquid. For the molecule `CSC[C@H]1O[C@@H](n2cnc3c(N)nc(C#N)nc32)[C@H](O)[C@@H]1O` [Compound 71, 2-Cyano-5′-deoxy-5′-(methylthio)adenosine], the melting point was 184 to 185 °C.
`[N-]=[N+]=NC[C@H]1O[C@@H](n2cnc3c(N)nc(Cl)nc32)[C@H](O)[C@@H]1O` [Compound 49, 5′-Azido-2-chloro-5′-deoxyadenosine] gave a melting point of 222 to 223 °C.
Regarding `O=C(Cn1ccnc1[N+](=O)[O-])NCc1ccccc1` [benznidazole, reference compound], in the data set on Trypanosoma cruzi (standard drug listed in the table, read-out: IC50 against T. cruzi (standard)), the pIC50 is 6.37.
Molecule `CC(=O)O[C@@H]1[C@H](OC(C)=O)[C@@H](CN=[N+]=[N-])O[C@H]1n1cnc2c(N)nc(Cl)nc21` [Compound 41, 2′,3′-Di-O-Acetyl-5′-azido-2-chloro-5′-deoxyadenosine] yielded a melting point of 75 to 77 °C.
The same measure, in the same setting: the value for `CC(=O)O[C@@H]1[C@H](OC(C)=O)[C@@H](CI)O[C@H]1n1cnc2c(N)nc(F)nc21` [Compound 46, 2′,3′-Di-O-acetyl-5′-deoxy-2-fluoro-5′-iodoadenosine] was 181 to 182 °C; that for `CC(=O)O[C@@H]1[C@H](OC(C)=O)[C@@H](CN2C(=O)c3ccccc3C2=O)O[C@H]1n1cnc2c(N)nc(Cl)nc21` [Compound 45, 2′,3′-Di-O-acetyl-2-chloro-5′-deoxy-5′-phthalimidoadenosine] was 256 °C.
Take `Nc1nc(Cl)c2ccn(C3O[C@H](CO)[C@@H](O)[C@H]3O)c2n1` (stereo partly drawn) [ACT-91, 2-Amino-6-chloro-7-deaza-9-(D-ribofuranosyl)purine]: the melting point was 172 to 173 °C. Besides, in [1] (Trypanosoma brucei, STIB900, average of duplicate determinations, read-out: IC50 against T.b. rhodesiense), the pIC50 was 6.89. Also, the pIC50 in [3] was 7.22. The “Selectivity index for L. donovani (SIL)” value in data set [3] (ratio IC50 (L6)/IC50 (L. donovani)) was 2720 and 2717. The pIC50 in the data set on Trypanosoma cruzi (setting [7]) is 5.47. Moreover, the “Selectivity index for T. cruzi (SIC)” value in the data set with Trypanosoma cruzi (ratio IC50 (L6)/IC50 (T. cruzi)) worked out at 48.
On to `CCCCCCCCCCCCCCCCOP(=O)([O-])OCC[N+](C)(C)C` [miltefosine, reference compound], for which the pIC50 in data set [3] is 6.91.
The molecule `CC(=O)O[C@@H]1[C@H](OC(C)=O)[C@@H](CN2C(=O)c3ccccc3C2=O)O[C@H]1n1cnc2c(N)nc(F)nc21` [Compound 44, 2′,3′-Di-O-acetyl-5′-deoxy-2-fluoro-5′-phthalimidoadenosine] returned a melting point of 237 to 239 °C.
`CNc1nc(C#N)nc2c1ncn2[C@@H]1O[C@H](C)[C@@H](O)[C@H]1O` [Compound 72, 2-Cyano-5′-deoxy-N^6-methyladenosine] showed a melting point of 193 to 194 °C.
With `CSC[C@H]1O[C@@H](n2cnc3c(N(C)N=O)nc(F)nc32)[C@H](O)[C@@H]1O` [ACT-88, 5′-Deoxy-2-fluoro-N^6-methyl-5′-methylthio-N^6-nitrosoadenosine], in [1], the “Activity against Trypanosoma brucei (in words)” value was “absence”. Also, the pIC50 in [2] (Plasmodium falciparum, read-out: IC50 against Plasmodium falciparum) is 6.96. In data set [2] (ratio IC50 (L6)/IC50 (P. falciparum)), the “Selectivity index for P. falciparum (SIp)” value was 983 and 1254. In addition, the “Activity against L. donovani (in words)” value in [3] is listed as “absence”. Moreover, the “Activity against Trypanosoma cruzi (in words)” value with Trypanosoma cruzi is listed as “absence”.
`CNc1nc(C#N)nc2c1ncn2[C@@H]1O[C@H](CSC)[C@@H](O)[C@H]1O` [Compound 73, 2-Cyano-5′-deoxy-N^6-methyl-5′-(methylthio)adenosine] yielded a melting point of 193 to 194 °C.
`CSC[C@H]1O[C@@H](n2cnc3c(N)nc(NN)nc32)[C@H](O)[C@@H]1O` [Compound 58, 5′-Deoxy-2-hydrazino-5′-(methylthio)adenosine] had a melting point of 168 to 169 °C.
Consider `O=c1[nH]cnc2c([C@@H]3O[C@H](CO)[C@@H](O)[C@H]3O)n[nH]c12` [Formycin B], for which the “Inhibition of Leishmania donovani in vitro” value in the data set with Leishmania donovani [5] is recorded as “inhibits”. In addition, the “Therapeutic activity in a hamster model” value in the data set with Leishmania donovani [6] is “therapeutically active”. The “Activity against T.b gambiense” value in the data set with T.b gambiense is reported as “active”. The “Activity against T.b. rhodesiense” value with T.b. rhodesiense is “active”.
Molecule `CC(=O)O[C@@H]1[C@H](OC(C)=O)[C@@H](CI)O[C@H]1n1cnc2c(N)nc(Cl)nc21` [Compound 47, 2′,3′-Di-O-acetyl-2-chloro-5′-deoxy-5′-iodoadenosine] had a melting point of 93 °C.
